Measured values published in the supplement of paper PMC11451515.

Legend:
Conditions in all cases: 48 h
[1] = tested on: SEM cells; assay: cell viability relative to DMSO control; higher = less cytotoxic
Method in brief: (§1)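 Leukemia cells (NOMO1 or SEM, 500 cells/well; P12-Ichikawa, 1000 cells/well) were seeded in 5 μl in 1536-well plates after at least four passages of adaptation to each medium. They received library compounds in DMSO by pin dosing, 11 threefold points from 47 μM to 0.79 nM. Luminescence with CellTiter-Glo One was read after 48 h at 37°C. Viability is stated per plate relative to DMSO wells, with cell-free wells as background.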

[2] = tested on: NOMO1; assay: as above
Method in brief: as §1

[3] = tested on: P12-Ichikawa; assay: as above
Method in brief: as §1

[4] = tested on: SEM cells; assay: AUC of viability dose-response curve (% viability x log10 dose units); higher = less sensitive
Method in brief: (§2)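 Leukemia cells adapted to each medium were seeded in 1536-well plates (500 or 1000 cells/well) and given library compounds in DMSO for 48 h at 37°C. The 11 threefold doses spanned 47 μM to 0.79 nM, and CellTiter-Glo One luminescence was normalised per plate to DMSO and cell-free wells before four-parameter log-logistic fitting on log10 dose. Area under the curve was integrated with the trapezoidal rule, scaling curves above full viability and removing curves that failed quality control.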

[5] = tested on: NOMO1; assay: as above
Method in brief: as §2

[6] = tested on: P12-Ichikawa; assay: as above
Method in brief: as §2

CCNC(=O)[C@H]1O[C@@H](n2cnc3c(N)nc(NCCc4ccc(CCC(=O)O)cc4)nc32)[C@H](O)[C@@H]1O
cell viability [%]
Conditions | [1] | [2] | [3]
HPLM + 10% dialyzed FBS, 0.000781 µM | 100 | 104 | 108
HPLM + 10% dialyzed FBS, 0.00234 µM | 90.7 | 83.1 | 97.9
HPLM + 10% dialyzed FBS, 0.00702 µM | 106 | 98.9 | 101
HPLM + 10% dialyzed FBS, 0.0211 µM | 111 | 103 | 106
HPLM + 10% dialyzed FBS, 0.0632 µM | 115 | 95.7 | 109
HPLM + 10% dialyzed FBS, 0.19 µM | 107 | 104 | 101
HPLM + 10% dialyzed FBS, 0.569 µM | 107 | 96.6 | 106
HPLM + 10% dialyzed FBS, 1.71 µM | 110 | 95.6 | 103
HPLM + 10% dialyzed FBS, 5.12 µM | 106 | 87.3 | 104
HPLM + 10% dialyzed FBS, 15.4 µM | 104 | 96.6 | 96.8
HPLM + 10% dialyzed FBS, 46.1 µM | 78.8 | 91 | 96.1
RPMI 5 mM glucose + 10% FBS, 0.000781 µM | 83.6 | 104 | 105
RPMI 5 mM glucose + 10% FBS, 0.00234 µM | 33.4 | 91.6 | 102
RPMI 5 mM glucose + 10% FBS, 0.00702 µM | 91.4 | 94 | 96.2
RPMI 5 mM glucose + 10% FBS, 0.0211 µM | 97.6 | 102 | 102
RPMI 5 mM glucose + 10% FBS, 0.0632 µM | 103 | 89.4 | 102
RPMI 5 mM glucose + 10% FBS, 0.19 µM | 108 | 89.3 | 97.5
RPMI 5 mM glucose + 10% FBS, 0.569 µM | 110 | 86.9 | 99.9
RPMI 5 mM glucose + 10% FBS, 1.71 µM | 88.1 | 90.6 | 99.6
RPMI 5 mM glucose + 10% FBS, 5.12 µM | 92 | 89.9 | 96.4
RPMI 5 mM glucose + 10% FBS, 15.4 µM | 89.6 | 90.8 | 93.3
RPMI 5 mM glucose + 10% FBS, 46.1 µM | 62.3 | 84.1 | 92.2
RPMI 5 mM glucose + 10% dialyzed FBS, 0.000781 µM | 88.3 | 89.3 | 106
RPMI 5 mM glucose + 10% dialyzed FBS, 0.00234 µM | 84.3 | 104 | 98.9
RPMI 5 mM glucose + 10% dialyzed FBS, 0.00702 µM | 101 | 100 | 107
RPMI 5 mM glucose + 10% dialyzed FBS, 0.0211 µM | 102 | 93.5 | 99.8
RPMI 5 mM glucose + 10% dialyzed FBS, 0.0632 µM | 116 | 92.3 | 105
RPMI 5 mM glucose + 10% dialyzed FBS, 0.19 µM | 116 | 90.8 | 97.2
RPMI 5 mM glucose + 10% dialyzed FBS, 0.569 µM | 117 | 96.9 | 108
RPMI 5 mM glucose + 10% dialyzed FBS, 1.71 µM | 96.3 | 88.7 | 91.3
RPMI 5 mM glucose + 10% dialyzed FBS, 5.12 µM | 109 | 94.5 | 101
RPMI 5 mM glucose + 10% dialyzed FBS, 15.4 µM | 99 | 78.8 | 95.9
RPMI 5 mM glucose + 10% dialyzed FBS, 46.1 µM | 74.8 | 87.8 | 93.3

AUC of viability dose-response curve
Conditions | [4] | [5] | [6]
HPLM + 10% dialyzed FBS | 470 | 458 | 465
RPMI 5 mM glucose + 10% FBS | 421 | 437 | 456
RPMI 5 mM glucose + 10% dialyzed FBS | 469 | 442 | 462

CC(=O)OC\C1=C(\[N@]2[C@@H](SC1)[C@H](N)C2=O)C(O)=O
[1], HPLM + 10% dialyzed FBS
Conditions | cell viability [%]
0.000781 µM | 104
0.00234 µM | 111
0.00702 µM | 119
0.0211 µM | 120
0.0632 µM | 123
0.19 µM | 141
0.569 µM | 129
1.71 µM | 138
5.12 µM | 125
15.4 µM | 126
46.1 µM | 97.1

AUC of viability dose-response curve
Conditions | [4] | [5] | [6]
HPLM + 10% dialyzed FBS | 462 | 330 | 346
RPMI 5 mM glucose + 10% FBS | 473 | 306 | 348
RPMI 5 mM glucose + 10% dialyzed FBS | 470 | 324 | 370

CN(C)C/C=C/C(=O)Nc1cc2c(Nc3ccc(F)c(Cl)c3)ncnc2cc1O[C@H]1CCOC1
AUC of viability dose-response curve
Conditions | [4] | [5] | [6]
HPLM + 10% dialyzed FBS | 320 | 339 | 337
RPMI 5 mM glucose + 10% FBS | 304 | 342 | 338
RPMI 5 mM glucose + 10% dialyzed FBS | 324 | 345 | 347

CCN1C[C@]2(OC(=O)c3ccccc3NC(C)=O)CC[C@H](OC)[C@@]34[C@@H]2C[C@@H]([C@@H]13)[C@@]1(O)C[C@H](OC)[C@H]2C[C@@H]4[C@]1(O)[C@H]2OC
cell viability [%]
Conditions | [1] | [2] | [3]
HPLM + 10% dialyzed FBS, 0.000781 µM | 85 | 106 | 91.8
HPLM + 10% dialyzed FBS, 0.00234 µM | 100 | 101 | 109
HPLM + 10% dialyzed FBS, 0.00702 µM | 99 | 118 | 110
HPLM + 10% dialyzed FBS, 0.0211 µM | 105 | 101 | 113
HPLM + 10% dialyzed FBS, 0.0632 µM | 99.6 | 108 | 114
HPLM + 10% dialyzed FBS, 0.19 µM | 104 | 88.3 | 109
HPLM + 10% dialyzed FBS, 0.569 µM | 98.2 | 118 | 106
HPLM + 10% dialyzed FBS, 1.71 µM | 106 | 103 | 111
HPLM + 10% dialyzed FBS, 5.12 µM | 92.5 | 112 | 103
HPLM + 10% dialyzed FBS, 15.4 µM | 85.2 | 93.2 | 106
HPLM + 10% dialyzed FBS, 46.1 µM | 88.6 | 114 | 108
RPMI 5 mM glucose + 10% FBS, 0.000781 µM | 79.5 | 96.3 | 105
RPMI 5 mM glucose + 10% FBS, 0.00234 µM | 96.6 | 99.4 | 109
RPMI 5 mM glucose + 10% FBS, 0.00702 µM | 101 | 101 | 116
RPMI 5 mM glucose + 10% FBS, 0.0211 µM | 102 | 106 | 104
RPMI 5 mM glucose + 10% FBS, 0.0632 µM | 106 | 103 | 113
RPMI 5 mM glucose + 10% FBS, 0.19 µM | 99.8 | 91.6 | 111
RPMI 5 mM glucose + 10% FBS, 0.569 µM | 103 | 118 | 119
RPMI 5 mM glucose + 10% FBS, 1.71 µM | 90.9 | 107 | 108
RPMI 5 mM glucose + 10% FBS, 5.12 µM | 87.9 | 95.1 | 99.1
RPMI 5 mM glucose + 10% FBS, 15.4 µM | 65.6 | 101 | 105
RPMI 5 mM glucose + 10% FBS, 46.1 µM | 71 | 107 | 114
RPMI 5 mM glucose + 10% dialyzed FBS, 0.000781 µM | 88.2 | 98 | 103
RPMI 5 mM glucose + 10% dialyzed FBS, 0.00234 µM | 94.6 | 104 | 111
RPMI 5 mM glucose + 10% dialyzed FBS, 0.00702 µM | 97.5 | 120 | 115
RPMI 5 mM glucose + 10% dialyzed FBS, 0.0211 µM | 101 | 99.1 | 110
RPMI 5 mM glucose + 10% dialyzed FBS, 0.0632 µM | 81.9 | 105 | 117
RPMI 5 mM glucose + 10% dialyzed FBS, 0.19 µM | 88.4 | 105 | 106
RPMI 5 mM glucose + 10% dialyzed FBS, 0.569 µM | 99.4 | 109 | 115
RPMI 5 mM glucose + 10% dialyzed FBS, 1.71 µM | 93 | 107 | 110
RPMI 5 mM glucose + 10% dialyzed FBS, 5.12 µM | 80.6 | 111 | 104
RPMI 5 mM glucose + 10% dialyzed FBS, 15.4 µM | 78.4 | 106 | 107
RPMI 5 mM glucose + 10% dialyzed FBS, 46.1 µM | 86.5 | 95.9 | 102

AUC of viability dose-response curve
Conditions | [4] | [5] | [6]
HPLM + 10% dialyzed FBS | 461 | 477 | 473
RPMI 5 mM glucose + 10% FBS | 439 | 465 | 475
RPMI 5 mM glucose + 10% dialyzed FBS | 430 | 477 | 469
